Laboratory results reported in patent US20220233556A1, “COMPOSITIONS AND METHODS FOR TREATING OPHTHALMIC CONDITIONS” (Medicon Pharmaceuticals, Inc., priority 2017, published 2022).
Like-named read-outs stand apart in the source and are kept apart here.

Assays:
[1] = Biodistribution of PS in human cadaveric eyes (ex vivo), PS HP-β-CD solution; format: in vitro ADME; conditions: human eye ex vivo
Description: Human cadaveric eyes were obtained through the Lions Eye Bank for Long Island, Valley Stream, N.Y. They were preserved on ice and used within 2 h from removal from the donors.
In another similar study, the anterior surface of the human eye was brought into direct contact with a PS HP-β-CD solution (PS concentration at 0.5%, 2.0% and 3.3%) and incubated for 10 min at 37° C. The eye was then rinsed with 10% dimethylsulfoxide (DMSO) to remove residual PS from the surface of the eye and incubated in PBS for 60 min. […] At the specified times, ocular tissues were dissected and PS levels determined by HPLC.

[2] = PS levels in ocular tissues (HPLC) after topical 3.5% PS Vitamin E TPGS solution; format: in vivo, New Zealand white rabbits; conditions: New Zealand white, rabbit, 3.5 % PS solution (eye drops)
Description: Composition: 3.5% PS; 16% Vitamin E TPGS (d-α-tocopheryl polyethylene glycol 1000 succinate); 3.18% mannitol; 1.2% boric acid; 0.005% polyquaternium-1 (Polyquad). Alternatively, vitamin E TPGS may be replaced by other solubilizing agents. Polyquad is added as a preservative.
Preparation Method: Polyquad and Vitamin E TPGS were dissolved in purified water followed by addition of PS and stirring at 70° C. for 30 min. Then the solution was centrifuged to remove non-dissolved drug particles and the supernatant was collected, to which mannitol and boric acid were added. The final volume was adjusted with purified water after adjusting the pH to 6.7±0.2 with NaOH.
Results: The above PS formulation was administered topically as eye drops to the eyes of New Zealand white rabbits. The levels of PS in ocular tissues 1 h and 3 h later were determined by HPLC.

[3] = Safety of topically applied PS in rabbits (slit lamp, intraocular pressure, necropsy); format: in vivo
Text: The Safety of Topically Applied PS.

[4] = PS biodistribution after topical alternative gellan gum-based in-situ gel; format: in vivo, New Zealand white rabbits; conditions: New Zealand white, rabbit, alternative gellan gum 0.4% gel
Description: Composition: 2.4-3% PS; 0.4% Gellan gum; 10% Vitamin E TPGS; 5% (2-hydroxypropyl)-β-cyclodextrin.
Results: PS in this formulation was administered topically to the eyes of New Zealand white rabbits and its biodistribution was determined as above.

NF-κB = NF-κB activation by EMSA in TNF-α-stimulated human conjunctival cells; format: cell-based; conditions: PS 5 h, then TNF-α 10 ng/ml, EMSA 1 h later
Description: FIGS. 6A and 6B illustrate that PS suppresses the activation of NF-κB and MAPKs. In FIG. 6A, NF-κB activation was determined by EMSA in cultured human conjunctival cells stimulated with TNFα (top) and in the ILG of rabbits with Con A-induced DED and treated for one week with either vehicle or PS (bottom). In FIG. 6B, immunoblots detecting the activation of MAPKs by phosphorylation in cultured human conjunctival cells treated with PS at the indicated concentrations for 3.5 h. Loading control: β-actin.
The Mechanism of Action of PS in Dry Eye. Tissue culture, animal and human studies have established inflammation as the core mechanism of DED. To determine the mechanism of action of PS in DED the response to PS of several factors known to play an important role in the inflammation associated with DED was explored. They include NF-κB; the cytokines TGF-β, IL-1β, IL-6 and IL-8; the collagenases MMP-1 and MMP-9; and PGE2. In these studies human conjunctival epithelial cells were used, the Wong-Kilbourne derivative of Chang conjunctival cells (clone 1 to 5c-4l American Type Culture Collection (Manassas, Va.) certified cell line, 20.2).
Human conjunctival cells were treated with various concentrations of PS. Five hours later, TNF-α was added to the culture medium to a final concentration of 10 ng/ml and the status of NF-κB activation was determined by EMSA 1 h later. […]

[5] = aqueous humor, read-out: PS in Aqueous humor
[6] = choroid, read-out: PS in Choroid
[7] = conjunctiva, read-out: PS in Conjunctiva
[8] = weekly during 1-month application

With `CCOP(=O)(OCC)OCCCCOC(=O)CC1=C(C)/C(=C/c2ccc([S+](C)[O-])cc2)c2ccc(F)cc21` (stereo not drawn) [PS, phosphosulindac] as the compound, how does the “PS in Aqueous” value ([1]; 0.5% PS HP-β-CD solution) read?
Its value is 2.4 µM.

And the “PS in Lens” value ([1]; 0.5% PS HP-β-CD solution)?
Its value is 0.6 µM.

What about the “PS in Retina” value ([1]; 0.5% PS HP-β-CD solution) of the same compound?
The value was 2.9 µM.

What about the “PS in Vitreous” value ([1]; 0.5% PS HP-β-CD solution) of the same compound?
Its value is 0.3 µM.

What about the “PS in Lens” value ([1]; 2.0% PS HP-β-CD solution) of the same compound?
The value was 1.4 µM.

What about the “PS in Lens” value ([1]; 3.3% PS HP-β-CD solution) of the same compound?
The value was 1.9 µM.

What about the “PS in Vitreous” value ([1]; 3.3% PS HP-β-CD solution) of the same compound?
Its value is 4.3 µM.

What about the concentration at 1 h [2, 5] of the same compound?
The concentration at 1 h was 2300 nM.

What about the concentration at 3 h [2, 5] of the same compound?
The concentration at 3 h was 100 nM.

What about the concentration at 1 h [2, 6] of the same compound?
The concentration at 1 h was 3200 nM.

And the concentration at 3 h [2, 6]?
Its concentration at 3 h is 200 nM.

And the concentration at 1 h [2, 7]?
Its concentration at 1 h is 9300 nM.

What about the concentration at 3 h [2, 7] of the same compound?
The concentration at 3 h was 500 nM.

And the concentration at 1 h ([2]; cornea, read-out: PS in Cornea)?
The concentration at 1 h was 6900 nM.

What about the concentration at 3 h ([2]; cornea, read-out: PS in Cornea) of the same compound?
The concentration at 3 h was 800 nM.

What about the concentration at 3 h ([2]; iris, read-out: PS in Iris) of the same compound?
Its concentration at 3 h is 900 nM.

What about the concentration at 3 h ([2]; lacrimal gland, read-out: PS in Lacrimal gland) of the same compound?
The concentration at 3 h was 500 nM.

What about the concentration at 1 h ([2]; lens, read-out: PS in Lens) of the same compound?
The concentration at 1 h was 1800 nM.

And the concentration at 3 h ([2]; lens, read-out: PS in Lens)?
Its concentration at 3 h is 100 nM.

And the concentration at 1 h ([2]; retina, read-out: PS in Retina)?
Its concentration at 1 h is 2700 nM.

And the concentration at 3 h ([2]; retina, read-out: PS in Retina)?
Its concentration at 3 h is 200 nM.

What about the concentration at 1 h ([2]; sclera, read-out: PS in Sclera) of the same compound?
Its concentration at 1 h is 2300 nM.

What about the concentration at 3 h ([2]; sclera, read-out: PS in Sclera) of the same compound?
The concentration at 3 h was 200 nM.

And the concentration at 1 h ([2]; vitreous body, read-out: PS in Vitreous body)?
Its concentration at 1 h is 3600 nM.

What about the signs of uveitis ([3]; 1-month application) of the same compound?
Its signs of uveitis is “No animal developed signs of uveitis”.

What about the Intraocular pressure ([3]; Tonopen, 1-month application) of the same compound?
Its Intraocular pressure is “remained normal”.

What about the “tolerability of ocular application” value ([3]; rabbits, topical) of the same compound?
The value was “very well tolerated”.

And the “slit lamp: corneal abnormalities (staining defects, vascularization, opacification, epithelial defects, stromal thinning, melts)” value [3, 8]?
The value was “nor were there signs of corneal abnormalities”.

What about the “slit lamp: follicular/papillary response or injection of the conjunctiva” value [3, 8] of the same compound?
The value was “no evidence of follicular/papillary response or injection of the conjunctiva”.

What about the concentration at 0.5 h [4, 5] of the same compound?
Its concentration at 0.5 h is 600 nM.

And the concentration at 1 h [4, 5]?
Its concentration at 1 h is 400 nM.

And the concentration at 0.5 h [4, 7]?
Its concentration at 0.5 h is 37700 nM.

And the concentration at 1 h [4, 7]?
Its concentration at 1 h is 20800 nM.

And the concentration at 3 h [4, 7]?
Its concentration at 3 h is 700 nM.

What about the concentration at 5 h [4, 7] of the same compound?
Its concentration at 5 h is 1100 nM.

What about the concentration at 8 h [4, 7] of the same compound?
The concentration at 8 h was 700 nM.

What about the concentration at 0.5 h ([4]; cornea, read-out: PS in Cornea) of the same compound?
Its concentration at 0.5 h is 24300 nM.

And the concentration at 1 h ([4]; cornea, read-out: PS in Cornea)?
Its concentration at 1 h is 50800 nM.

And the concentration at 3 h ([4]; cornea, read-out: PS in Cornea)?
Its concentration at 3 h is 1500 nM.

What about the concentration at 5 h ([4]; cornea, read-out: PS in Cornea) of the same compound?
Its concentration at 5 h is 1100 nM.

What about the concentration at 8 h ([4]; cornea, read-out: PS in Cornea) of the same compound?
The concentration at 8 h was 1600 nM.

And the “activation of NF-κB” value (NF-κB)?
Its value is “significantly suppressed”.
